Common to all, as to assay type: in vivo
One assay concerns Cyperus iria. The experiment in a line: Greenhouse pot test, post emergence treatment, herbicidal activity against CYPIR. Particulars: scale 0 to 100.
Assay [1] relates to Erigeron Canadensis, Conyza canadensis. The assay is described as follows: Greenhouse pot test, post emergence treatment, herbicidal activity against ERICA. The conditions noted are these: L-Glufosinate 75 g ai/ha, scale 0 to 100.
The next assay concerns Echinochloa crus-galli. The assay is described as follows: Greenhouse pot test, post emergence treatment, herbicidal activity against ECHCG. Particulars: scale 0 to 100. The source says: (§1) Synergism can be described as an interaction where the combined effect of two or more compounds is greater than the sum of the individual effects of each of the compounds. The presence of a synergistic effect in terms of percent control, between two mixing partners (X and Y) can be calculated using the Colby equation (Colby, S. R., 1967, Calculating Synergistic and Antagonistic Responses in Herbicide Combinations, Weeds, 15, 21-22):
(§2) When the observed combined control effect is greater than the expected (calculated) combined control effect (E), then the combined effect is synergistic.
(§3) However, the weed control afforded by the compounds, mixtures or compositions is not limited to these species. The analysis of synergism or antagonism between the mixtures or compositions was determined using Colby's equation.
The culture containers used were plastic flowerpots containing loamy sand with approximately 3.0% of humus as the substrate. The seeds of the test plants were sown separately for each species and/or resistant biotype. For the pre-emergence treatment, the active ingredients, which had been suspended or emulsified in water, were applied directly after sowing by means of finely distributing nozzles. The containers were irrigated gently to promote germination and growth and subsequently covered with transparent plastic hoods until the plants had rooted. This cover caused uniform germination of the test plants, unless this had been impaired by the active ingredients. For the post-emergence treatment, the test plants were first grown to a height of 3 to 15 cm, depending on the plant habit, and only then treated with the active ingredients which had been suspended or emulsified in water. For this purpose, the test plants were either sown directly and grown in the same containers, or they were first grown separately as seedlings and transplanted into the test containers a few days prior to treatment. […] During this time, the plants were tended, and their response to the individual treatments was evaluated. […]

In the next assay the test system is Avena fatua. The experiment in a line: Greenhouse pot test, post emergence treatment, herbicidal activity against AVEFA. The conditions noted are these: scale 0 to 100.
Text: as §1, §2, §3
The culture containers used were plastic flowerpots containing loamy sand with approximately 3.0% of humus as the substrate. The seeds of the test plants were sown separately for each species and/or resistant biotype. For the pre-emergence treatment, the active ingredients, which had been suspended or emulsified in water, were applied directly after sowing by means of finely distributing nozzles. The containers were irrigated gently to promote germination and growth and subsequently covered with transparent plastic hoods until the plants had rooted. This cover caused uniform germination of the test plants, unless this had been impaired by the active ingredients. For the post-emergence treatment, the test plants were first grown to a height of 3 to 15 cm, depending on the plant habit, and only then treated with the active ingredients which had been suspended or emulsified in water. For this purpose, the test plants were either sown directly and grown in the same containers, or they were first grown separately as seedlings and transplanted into the test containers a few days prior to treatment. Depending on the species, the plants were kept at 10-25 ° C.or 20-35° C., respectively. The test period extended to 20 days after treatment. During this time, the plants were tended, and their response to the individual treatments was evaluated. The evaluation was carried out by using a scale from 0 to 100. 100 means no emergence of the plants or complete destruction of at least the above-ground parts, and 0 means no damage, or normal course of growth. Data shown are the mean of two replications. […]

The next assay relates to Abutilon theophrasti. The experiment in a line: Greenhouse pot test, post emergence treatment, herbicidal activity against ABUTH. The conditions noted are these: scale 0 to 100.
Text: as §1, §2, §3
The culture containers used were plastic flowerpots containing loamy sand with approximately 3.0% of humus as the substrate. The seeds of the test plants were sown separately for each species and/or resistant biotype. For the pre-emergence treatment, the active ingredients, which had been suspended or emulsified in water, were applied directly after sowing by means of finely distributing nozzles. The containers were irrigated gently to promote germination and growth and subsequently covered with transparent plastic hoods until the plants had rooted. This cover caused uniform germination of the test plants, unless this had been impaired by the active ingredients. For the post-emergence treatment, the test plants were first grown to a height of 3 to 15 cm, depending on the plant habit, and only then treated with the active ingredients which had been suspended or emulsified in water. For this purpose, the test plants were either sown directly and grown in the same containers, or they were first grown separately as seedlings and transplanted into the test containers a few days prior to treatment. Depending on the species, the plants were kept at 10-25 ° C.or 20-35° C., respectively. The test period extended to 20 days after treatment. During this time, the plants were tended, and their response to the individual treatments was evaluated. The evaluation was carried out by using a scale from 0 to 100. 100 means no emergence of the plants or complete destruction of at least the above-ground parts, and 0 means no damage, or normal course of growth. Data shown are the mean of two replications.
• L-Glufosinate: 5% EC formulation • Saflufenacil: 342 g/l SC formulation • Compound II-89: 5% EC formulation (Compound II-89: ethyl [3-[2-chloro-4-fluoro-5-(1-methyl-6-trifluoromethyl-2,4-dioxo-1,2,3,4-tetrahydropyrimidin-3-yl)phenoxy]-2-pyridyloxy]acetate) • Trifludimoxazin: 500 g/l SC formulation • Pyroxasulfone: 85% WG formulation • Pethoxamid: 5% EC formulation • Sulfentrazone: 480 g/l SC formulation Weeds in the Study: […]

The structures appear in SMILES notation.

Turning to `CCOC(=O)COc1ncccc1Oc1cc(-n2c(=O)cc(C(F)(F)F)n(C)c2=O)c(F)cc1Cl` [Compound II-89, ethyl [3-[2-chloro-4-fluoro-5-(1-methyl-6-trifluoromethyl-2,4-dioxo-1,2,3,4-tetrahydropyrimidin-3-yl)phenoxy]-2-pyridyloxy]acetate], the “Herbicidal activity against CYPIR, Found” value in the assay with Cyperus iria (Compound II-89 0.25 g ai/ha) is reported as 0.

`CP(=O)(O)CC[C@H](N)C(=O)O` [L-Glufosinate, (2S)-2-amino-4-[hydroxy(methyl)phosphinoyl]butyric acid]: the “Herbicidal activity against ERICA, Found” value in assay [1] is 90. The “Herbicidal activity against CYPIR, Found” value in the assay on Cyperus iria (L-Glufosinate 200 g ai/ha) was found to be 0. Besides, the “Herbicidal activity against ECHCG, Found” value with Echinochloa crus-galli (L-Glufosinate 200 g ai/ha) came out at 0; in the assay with Echinochloa crus-galli (L-Glufosinate 400 g ai/ha) it was 65. Further, the “Herbicidal activity against AVEFA, Found” value in the assay with Avena fatua (L-Glufosinate 75 g ai/ha) and in the assay with Avena fatua (L-Glufosinate 150 g ai/ha) was 0 each time. Besides, the entries for the “Herbicidal activity against ABUTH, Found” value in the assay with Abutilon theophrasti (L-Glufosinate 75 g ai/ha), with Abutilon theophrasti (L-Glufosinate 150 g ai/ha) and in the assay with Abutilon theophrasti (L-Glufosinate 200 g ai/ha) were 0, 55 and 65, respectively.

In the case of `CCOCCN(C(=O)CCl)C(=C(C)C)c1ccccc1` [Pethoxamid, pethoxamid], the “Herbicidal activity against AVEFA, Found” value in the assay on Avena fatua (Pethoxamid 50 g ai/ha) and in the assay with Avena fatua (Pethoxamid 100 g ai/ha) was 0 throughout. Further, the “Herbicidal activity against ABUTH, Found” value in the assay on Abutilon theophrasti (Pethoxamid 50 g ai/ha) and in the assay on Abutilon theophrasti (Pethoxamid 100 g ai/ha) was 0 each time.

Consider `C#CCN1C(=O)C(F)(F)Oc2cc(F)c(-n3c(=O)n(C)c(=S)n(C)c3=O)cc21` [Trifludimoxazin, trifludimoxazin], for which the “Herbicidal activity against ECHCG, Found” value in the assay on Echinochloa crus-galli (Trifludimoxazin 0.25 g ai/ha) was 10.

The record behind these values is patent US12262716B2, “Herbicidal mixtures comprising L-glufosinate and their use in soybean cultures” (BASF SE, priority 2017, dated 2025).
